One assay relates to Campylobacter bacteria. Description: Example 3: killing of Campylobacter inoculated on food product samples by dip in wash composition. To be noted: 30 second dip; for log reduction of Campylobacter: versus positive control. In kind it is cell-based. As for the experimental part: (§1) Example 2 was performed to determine the effectiveness of an anti-microbial wash composition including a ceragenin compound in controlling growth of Salmonella bacteria by fighting off a Salmonella inoculation. Example 3 was similarly performed to determine the effectiveness of the wash composition in controlling growth of Campylobacter bacteria by fighting off a Campylobacter inoculation. Examples 2 and 3 simulate the effectiveness of the present anti-microbial wash compositions to kill Salmonella and Campylobacter on a food product where the food product has become contaminated with Salmonella bacteria or Campylobacter bacteria.
(§2) A total of 15 food product samples were used for these tests. The 15 samples were divided into five groups of three each. Three samples were left untreated to serve as a negative control in order to observe natural levels of bacteria present on the samples. The remaining 12 samples were then inoculated with 1 mL of Salmonella and 1 mL of Campylobacter. The samples were allowed to dry for 20 minutes in order for the bacteria to adhere to the surface of the food product samples. One group of three of the inoculated samples, designated the positive control, were then rinsed with a wash composition including no anti-microbial agent to determine the level of bacteria after inoculation.
(§3) Each sample was withdrawn after 30 seconds. […] Each sample was withdrawn after 30 seconds. The fifth group of three inoculated samples was dipped one by one into a comparative proprietary non-CSA wash composition. Each of the samples was then rinsed, and the rinsate was collected to determine the levels and types of bacteria from each group. […] In other words, there were no changes to color, texture, taste, or smell, as a result of application of the ceragenin wash compositions.
In other words, the treatment was effective in killing 93.7% of the Campylobacter bacteria. […] In other words, the treatment was effective in killing 80% of the Campylobacter bacteria.

The test system of the next assay is Salmonella bacteria. Description: Example 2: killing of Salmonella inoculated on food product samples by dip in wash composition. In kind it is cell-based. To be noted: 30 second dip; for level of Salmonella bacteria in the rinsate: positive control nearly 10^3.5 CFUs/mL. As for the experimental part:
as §1, §2, §3
In other words, the wash composition including 500 ppm ceragenin compound killed 100% of Salmonella bacteria present.

Setting [1] is: 1000 ppm by weight aqueous wash.

These results are taken from patent publication US20130280391A1, “ANTI-MICROBIAL WASH COMPOSITIONS INCLUDING CERAGENIN COMPOUNDS AND METHODS OF USE FOR TREATING NON-MEAT FOOD PRODUCTS” (BRIGHAM YOUNG UNIVERSITY, priority 2012, published 2013).

For `CCCCCCCCOC(=O)CC[C@@H](C)[C@H]1CC[C@H]2[C@@H]3[C@H](OC(=O)CCN)C[C@@H]4C[C@H](OC(=O)CCN)CC[C@]4(C)[C@H]3C[C@H](OC(=O)CCN)[C@]12C` [CSA-44], in the assay on Campylobacter bacteria (500 ppm by weight aqueous wash), the Campylobacter bacteria killed is reported as 93.7% and the “log reduction of Campylobacter” value is recorded as 1.2 log. Further, in the assay with Campylobacter bacteria (setting [1]), the Campylobacter bacteria killed worked out at 80% and the “log reduction of Campylobacter” value is reported as 0.8 log. In the assay with Salmonella bacteria (500 ppm by weight aqueous wash), the Salmonella bacteria killed came out at 100% and the “level of Salmonella bacteria in the rinsate” value is on record as “no detectable level of Salmonella bacteria”. Moreover, the “level of Salmonella bacteria in the rinsate” value in the assay with Salmonella bacteria (setting [1]) is “no detectable level of Salmonella bacteria”.
